Results from ChEMBL document CHEMBL1201862, “PubChem BioAssay data set” (2004).
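96-well plates; 48 h exposure; 5 concentrations. Endpoints by linear interpolation between flanking doses. Not reached: highest tested concentration assigned. GI50: concentration for 50% inhibition of growth.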 Active and inactive are the calls of the source. Cut-off read from the data, not from the text of the source: active = GI50 up to about 1.1 µM and inactive = higher.

Experiments:
Test in all cases: NCI anticancer screen, dose series, 48 h
[1] = tested on: 786-0
[2] = tested on: A498
[3] = tested on: A549
[4] = tested on: ACHN
[5] = tested on: BT-549
[6] = tested on: CAKI-1
[7] = tested on: CCRF-CEM
[8] = tested on: COLO 205
[9] = tested on: DU-145
[10] = tested on: EKVX
[11] = tested on: HCC 2998
[12] = tested on: HCT-116
[13] = tested on: HCT-15
[14] = tested on: HL-60
[15] = tested on: HOP-92
[16] = tested on: HT-29
[17] = tested on: Hs-578T
[18] = tested on: IGROV-1
[19] = tested on: K562
[20] = tested on: KM12
[21] = tested on: LOX IMVI
[22] = tested on: M14
[23] = tested on: MCF7
[24] = tested on: MDA-MB-231
[25] = tested on: MDA-MB-435
[26] = tested on: MDA-N
[27] = tested on: NCI-H226
[28] = tested on: NCI-H23
[29] = tested on: NCI-H460
[30] = tested on: NCI-H522
[31] = tested on: NCI/ADR-RES
[32] = tested on: OVCAR-3
[33] = tested on: OVCAR-4
[34] = tested on: OVCAR-5
[35] = tested on: OVCAR-8
[36] = tested on: PC-3
[37] = tested on: RPMI-8226
[38] = tested on: SF-268
[39] = tested on: SF-295
[40] = tested on: SF-539
[41] = tested on: SK-MEL-28
[42] = tested on: SK-MEL-2
[43] = tested on: SK-MEL-5
[44] = tested on: SK-OV-3
[45] = tested on: SN12C
[46] = tested on: SNB-19
[47] = tested on: SR
[48] = tested on: SW-620
[49] = tested on: TK-10
[50] = tested on: U-251
[51] = tested on: UACC-257
[52] = tested on: UACC-62
[53] = tested on: UO-31
[54] = tested on: HOP-62
[55] = tested on: MOLT-4
[56] = tested on: Malme-3M
[57] = tested on: RXF 393
[58] = tested on: SNB-75

COc1cc(C2SCC(=O)N2c2ccccc2Cl)cc(OC)c1OC (stereo not drawn)
GI50 [1]: > 100 µM (inactive)
GI50 [2]: > 100 µM (inactive)
GI50 [3]: > 100 µM (inactive)
GI50 [4]: > 100 µM (inactive)
GI50 [5]: 54 µM (inactive)
GI50 [6]: > 100 µM (inactive)
GI50 [7]: 80.4 µM (inactive)
GI50 [8]: > 100 µM (inactive)
GI50 [9]: > 100 µM (inactive)
GI50 [10]: > 100 µM (inactive)
GI50 [11]: > 100 µM (inactive)
GI50 [12]: > 100 µM (inactive)
GI50 [13]: > 100 µM
GI50 [14]: 37.8 µM (inactive)
GI50 [15]: > 100 µM (inactive)
GI50 [16]: > 100 µM (inactive)
GI50 [17]: > 100 µM (inactive)
GI50 [18]: > 100 µM (inactive)
GI50 [19]: > 100 µM (inactive)
GI50 [20]: 47.2 µM (inactive)
GI50 [21]: > 100 µM (inactive)
GI50 [22]: > 100 µM (inactive)
GI50 [23]: 62.1 µM (inactive)
GI50 [24]: > 100 µM (inactive)
GI50 [25]: 23.7 µM (inactive)
GI50 [26]: 19.4 µM (inactive)
GI50 [27]: > 100 µM (inactive)
GI50 [28]: > 100 µM (inactive)
GI50 [29]: > 100 µM (inactive)
GI50 [30]: 65.8 µM (inactive)
GI50 [31]: 88.5 µM (inactive)
GI50 [32]: > 100 µM (inactive)
GI50 [33]: > 100 µM (inactive)
GI50 [34]: > 100 µM (inactive)
GI50 [35]: > 100 µM (inactive)
GI50 [36]: > 100 µM (inactive)
GI50 [37]: 90.2 µM (inactive)
GI50 [38]: > 100 µM (inactive)
GI50 [39]: > 100 µM (inactive)
GI50 [40]: > 100 µM (inactive)
GI50 [41]: > 100 µM (inactive)
GI50 [42]: > 100 µM (inactive)
GI50 [43]: 92 µM (inactive)
GI50 [44]: > 100 µM (inactive)
GI50 [45]: > 100 µM (inactive)
GI50 [46]: 79.3 µM (inactive)
GI50 [47]: 43.1 µM (inactive)
GI50 [48]: > 100 µM (inactive)
GI50 [49]: > 100 µM (inactive)
GI50 [50]: > 100 µM (inactive)
GI50 [51]: > 100 µM (inactive)
GI50 [52]: > 100 µM (inactive)
GI50 [53]: > 100 µM (inactive)

O=C1CCCC2=C1CC1=C(CCCC1=O)N2c1ccc(Cl)cc1
GI50 [1]: > 100 µM (inactive)
GI50 [2]: > 100 µM (inactive)
GI50 [3]: > 100 µM (inactive)
GI50 [4]: > 100 µM (inactive)
GI50 [5]: > 100 µM (inactive)
GI50 [6]: > 100 µM (inactive)
GI50 [7]: 69.7 µM (inactive)
GI50 [8]: > 100 µM (inactive)
GI50 [9]: > 100 µM (inactive)
GI50 [10]: > 100 µM (inactive)
GI50 [11]: > 100 µM (inactive)
GI50 [12]: > 100 µM (inactive)
GI50 [13]: > 100 µM
GI50 [14]: 28.1 µM (inactive)
GI50 [54]: > 100 µM (inactive)
GI50 [16]: > 100 µM (inactive)
GI50 [17]: > 100 µM (inactive)
GI50 [18]: > 100 µM (inactive)
GI50 [19]: > 100 µM (inactive)
GI50 [20]: > 100 µM (inactive)
GI50 [21]: > 100 µM (inactive)
GI50 [22]: > 100 µM (inactive)
GI50 [23]: > 100 µM (inactive)
GI50 [24]: > 100 µM (inactive)
GI50 [25]: > 100 µM (inactive)
GI50 [26]: > 100 µM (inactive)
GI50 [55]: 94.6 µM (inactive)
GI50 [56]: > 100 µM (inactive)
GI50 [27]: > 100 µM (inactive)
GI50 [28]: > 100 µM (inactive)
GI50 [29]: > 100 µM (inactive)
GI50 [31]: > 100 µM (inactive)
GI50 [32]: > 100 µM (inactive)
GI50 [33]: > 100 µM (inactive)
GI50 [34]: > 100 µM (inactive)
GI50 [35]: 97.1 µM (inactive)
GI50 [36]: > 100 µM (inactive)
GI50 [37]: > 100 µM (inactive)
GI50 [57]: > 100 µM (inactive)
GI50 [38]: > 100 µM (inactive)
GI50 [39]: > 100 µM (inactive)
GI50 [40]: > 100 µM (inactive)
GI50 [41]: > 100 µM (inactive)
GI50 [43]: > 100 µM (inactive)
GI50 [44]: > 100 µM (inactive)
GI50 [45]: > 100 µM (inactive)
GI50 [46]: > 100 µM (inactive)
GI50 [58]: > 100 µM (inactive)
GI50 [47]: 50.1 µM (inactive)
GI50 [48]: > 100 µM (inactive)
GI50 [49]: > 100 µM (inactive)
GI50 [50]: > 100 µM (inactive)
GI50 [51]: > 100 µM (inactive)
GI50 [52]: > 100 µM (inactive)
GI50 [53]: > 100 µM (inactive)
